From article PMC11407758, “Integrated stress response (ISR) activation and apoptosis through HRI kinase by PG3 and other p53 pathway-restoring cancer therapeutics” (Oncotarget, 2024)
Peptide text beside a SMILES is read from it. * marks the point of attachment. Cbz = O=C(OCc1ccccc1)*; CH2F = FC*

Legend:
Type in all cases: cell-based, human
[1] = test system: cleaved caspase-8, -3, cleaved PARP and PUMA in HT29, SW480 and HCT116 p53−/− cells; assay: Western blot, apoptosis markers in PG3-treated cells; conditions: co-treatment with PG3; HT29, SW480, HCT116 p53–/–
Description: Figure 5 PG3 induces apoptosis in p53-null and p53-mutant cancer cell lines. (A–E) Dose-response and time-course analysis of cleavage of caspase-8, -3, cleaved PARP and PUMA in PG3-treated HT29, SW480 and HCT116 p53^−/− cells by western blot using the indicated antibodies. (F–H) Flowcytometry analysis of cell death. (I) HT29 and HT29-PUMA^−/− and (J) SW480 cells were co-treated with PG3 and pan-caspase inhibitor Z-VAD-fmk for 48 h. (K) HCT116 p53^−/− cell were co-treated with PG3 and Z-VAD-fmk for 24 hours.
(§1) After treatment, protein lysates were collected for Western blot analysis. A total of 15 μg of protein was used for SDS-PAGE. After primary and secondary antibody incubations, the signal was detected by a chemiluminescence detection kit, imaged by Syngene (Imgen Technologies). Antibodies for NAG-1 (GDF15) and P53 were from Santa Cruz Biotechnology; for caspase 8, cleaved caspase 8, caspase 9, caspase 3, cleavage PARP, eIF2α, p-eIF2α (Ser51), CHOP, ATF4, DR5, and PUMA were from Cell Signaling Technology. Noxa and p21 were from Calbiochem. Ran was from BD Biosciences.

[2] = test system: GCN2, PKR, eIF2α, ATF4, CHOP in HT29 cells; assay: Western blot, ISR kinases / eIF2α / ATF4 / CHOP; conditions: pre-treatment 2 hours, then ONC201 or PG3 for 24 hour
Description: Figure 7 PG3 induces upregulation of ATF4 through ISR via HRI. (A) HT29 cells were treated with PG3, GSK2606414, TG and ONC201 respectively, or co-treatment with PG3/GSK2606414, PG3/TG, and PG3/ONC201 for 15 h. (B) MEF, MEF^PERK−/− and MEF^GCN2−/− cells were treated with PG3 and ONC201 for 16 hours. (C) HT29 cells were transfected with siControl, siPKR, siHRI and siPKR/siHRI for 24 hours and then treated with PG3 for 16 hours. (D) HCT116 p53^−/− cells were transfected with siControl and siHRI for 24 hours and then treated with PG3 for 16 hours. (E) HCT116 p53^−/− cells were treated with PG3 and ONC201 for indicated times. (F) PANC1-sgCtrl, -sgHRI and -sgPKR cell lines were treated with PG3 and imipridones (ONC201, ONC206 and ONC212) for 16 hours. Western blot was performed using indicated antibodies. (G) Proposed model of PG3-induced cell apoptosis through HRI/ATF4/PUMA axis. Abbreviation: L.E.: Long exposure.
as §1
Supplementary Figure 2: ROS and NO are not responsible for PG3-induced HRI activation. (A, B) cells were pre-treated
with ZnPP, L-NMMA, SA and NAC for 2 hours respectively, and then ONC201 or PG3 was added to the medium for 24 hour treatment.
Western blot was performed using indicated antibodies.
(1 picture or pasted object on this page, not shown here)

[3] = test system: TOV-112D (R175H); assay: Cell viability assay (CellTiterGlo), TOV-112D; conditions: TOV-112D, 6.67 μM
Description: (§2) Figure 1 PG3 inhibits cell proliferation and growth in a p53-indepent manner. (A–E) Cell viability assay, dose response curves and IC50 value measurements in a panel of cancer cell lines and normal cells. Cells were treated with different concentrations of PG3, PG3-Oc (Oc), obatoclax (Ob), prodigiosin (P) or DMSO for 72 h. Luciferase activity was imaged by the IVIS Imaging System after treatment. Cell viability data were normalized to those of DMSO treatment control in each cell line and data analyses were performed using PRISM4 software. IC50 data are expressed as the mean ±SD (normal; n = 3).
as §2, with “2 p53-dependent inhibition of” for “1 PG3 inhibits”, “is only observed at specific concentrations. (A–J)” for “and growth in a p53-indepent manner. (A–E)”, “ZMC1, CP-313908, APR-246, Ellipticine, Nutalin-3a” for “PG3, PG3-Oc (Oc), obatoclax (Ob), prodigiosin (P)”
(§3) Cells were seeded in 96-well plates (6 × 10^3 cells/well). Cells were treated with different concentrations of compounds or dimethyl sulfoxide (DMSO) as a control for 72 hours. The cell viability was assessed by CellTiterGlo bioluminescent cell viability assay (Promega), following the manufacturer’s protocol. Bioluminescence imaging was measured using the IVIS imager. The percentage of cell viability (mean ± SEM) at each dose was calculated against the respective DMSO control. The IC50 values were determined from the sigmoidal dose-response curves using GraphPad Prism.

[4] = test system: HCT116 (P53−/−); assay: Cell viability assay (CellTiterGlo), HCT116 p53-/-
Description: as §2
as §2, with “2 p53-dependent inhibition of” for “1 PG3 inhibits”, “is only observed at specific concentrations. (A–J)” for “and growth in a p53-indepent manner. (A–E)”, “ZMC1, CP-313908, APR-246, Ellipticine, Nutalin-3a” for “PG3, PG3-Oc (Oc), obatoclax (Ob), prodigiosin (P)”
as §3

[5] = test system: HCT116 (WT); assay: Cell viability assay (CellTiterGlo), HCT116 WT
Description: as §2
as §2, with “2 p53-dependent inhibition of” for “1 PG3 inhibits”, “is only observed at specific concentrations. (A–J)” for “and growth in a p53-indepent manner. (A–E)”, “ZMC1, CP-313908, APR-246, Ellipticine, Nutalin-3a” for “PG3, PG3-Oc (Oc), obatoclax (Ob), prodigiosin (P)”
as §3

[6] = test system: HCT116 (R175H); assay: Cell viability assay (CellTiterGlo), HCT116 R175H
Description: as §2
as §2, with “2 p53-dependent inhibition of” for “1 PG3 inhibits”, “is only observed at specific concentrations. (A–J)” for “and growth in a p53-indepent manner. (A–E)”, “ZMC1, CP-313908, APR-246, Ellipticine, Nutalin-3a” for “PG3, PG3-Oc (Oc), obatoclax (Ob), prodigiosin (P)”
as §3

[7] = test system: HT29, TOV-112D, isogenic HCT116 cell lines, HFF-1 and MRC5; assay: Cell viability assay, panel of cancer cell lines and normal cells (results in words)
Description: as §2, with “2 p53-dependent inhibition of” for “1 PG3 inhibits”, “is only observed at specific concentrations. (A–J)” for “and growth in a p53-indepent manner. (A–E)”, “ZMC1, CP-313908, APR-246, Ellipticine, Nutalin-3a” for “PG3, PG3-Oc (Oc), obatoclax (Ob), prodigiosin (P)”
as §3

[8] = test system: SW480 cells carrying a p53-responsive luciferase reporter; assay: p53-responsive reporter assay; conditions: up to 60 μM, 6 hour and 15 hour time points
Description: SW480 cells carrying a p53-responsive luciferase reporter were used for assay of functional restoration of mutant p53. Cells were seeded in 96-well plates (5 × 10^4 cells/well) and were treated with compounds indicated for 6 and 15 h, respectively. Then, D-luciferin was added to each well with final concentration 100 μg/mL, and cells were imaged by using an IVIS Imaging System to detect luciferase activity.
p53-mutant SW480 human colon cancer cells, stably expressing a p53-responsive luciferase reporter, were used to assay functional restoration p53 pathway-dependent transcription in mutant p53-expressing tumor cells. Cells were seeded in 96-well plates (5 × 10^4 cells/well) and were treated with small-molecule compounds for 6 and 15 h, respectively. Then, D-luciferin was added to each well at a final concentration of 100 μg/mL, and cells were imaged by using an IVIS Imaging System (Xenogen) to detect luciferase activity.

[9] = test system: ATF4; assay: Western blot, ATF4 induction; conditions: five cancer cell lines, 24 h
Description: (§4) Figure 4 Activation of ATF4 and up-regulation of typical p53 target genes. (A–E) Western blot analysis of p53 protein levels and upregulation of ATF4, PUMA, DR5 and p21. Cells were treated for 24 h with indicated compounds, concentrations and cell lines. Abbreviations: S.E.: Short exposure; L.E.: Long exposure.
as §1

[10] = test system: p53 protein; assay: Western blot, p53 protein levels; conditions: for wild-type p53 protein level: HCT116, 24 h; for endogenous mutant p53 R273H protein level: HT29, 24 h; for endogenous mutant p53 R175H protein level: TOV-112D; for endogenous mutant p53 R175H protein level / exogenous mutant p53 R175H protein level: 24 h; for exogenous mutant p53 R175H protein level: engineered HCT116-R175H cells
Description: Cells were treated for 24 h with indicated compounds, concentrations and cell lines. Abbreviations: S.E.: Short exposure; L.E.: Long exposure.
as §1

[11] = test system: PUMA; assay: Western blot, PUMA induction; conditions: HCT116 (p53 wild-type), 24 h
Description: as §4, §1

[12] = test system: p21; assay: Western blot, p21 induction; conditions: 24 h
Description: as §4, §1

[13] = test system: DR5; assay: Western blot, DR5 induction; conditions: five cell lines, 24 h
Description: as §4, §1

In the case of `COC(=O)C[C@H](NC(=O)[C@H](C)NC(=O)[C@@H](NC(=O)OCc1ccccc1)C(C)C)C(=O)CF` [Z-VAD-FMK] (Cbz-Val-Ala-Asp(OMe)-CH2F), the “effect on PG3-induced cleavage of PARP, caspase-8 and -3” value [1] is reported as “potently inhibits the cleavage of PARP, caspase-8, and -3”.

In the case of `[H]/N=C(/NC)NCCC[C@H](N)C(=O)O` [L-NMMA, N-Methyl-L-arginine acetate], the “effect on PG3- or ONC201-induced upregulation of ATF4” value [2] is reported as “do not attenuate or block”.

With `COCC1(CO)C(=O)C2CCN1CC2` (stereo not drawn) [APR-246] the inhibition of proliferation [3] was “almost completely inhibited”, the IC50 ([4]; 72 h, CellTiterGlo) was 11.3 µM and the “fold more sensitive than the p53 wild-type HCT116 cell line” value ([4]; p53-null HCT116 vs HCT116 WT, 'at a concentration of 20 μM') was 2.9 fold. For the same molecule, the IC50 ([5]; 72 h, CellTiterGlo) was 33 µM, the IC50 ([6]; 72 h, CellTiterGlo) was 8.87 µM and the “fold more sensitive than the p53 wild-type HCT116 cell line” value ([6]; p53-mutated R175H HCT116 vs HCT116 WT, 'at a concentration of 20 μM') was 3.7 fold. The “inhibitory effects on normal cells” value ([7]; HFF-1 and MRC5, 0.08 μM) was “no detectable inhibitory effects”, the inhibition of proliferation ([7]; TOV-112D and HT29, 0.08 μM) was “potently inhibited” and the p53-responsive reporter activity [8] was “not able to activate the reporter”. The “upregulation of ATF4” value [9] was “does not upregulate ATF4”, the “wild-type p53 protein level” value [10] was “no effect” and the “endogenous mutant p53 R273H protein level” value [10] was “stabilizes”. For the same molecule, the “endogenous mutant p53 R175H protein level” value [10] was “stabilizes”, the “exogenous mutant p53 R175H protein level” value [10] was “does not stabilize” and the “upregulation of PUMA” value [11] was “upregulates PUMA”. The “upregulation of p21” value ([12]; HCT116 (p53 wild-type)) was “slightly induces p21” and the “upregulation of p21” value ([12]; TOV-112D) was “slightly induces p21”.

For `COc1ccc(C2=N[C@@H](c3ccc(Cl)cc3)[C@@H](c3ccc(Cl)cc3)N2C(=O)N2CCNC(=O)C2)c(OC(C)C)c1` [Nutlin-3a], the inhibition of viability ([5]; p53 wild-type HCT116, 6.67 μM) was “selectively inhibits the viability”, the inhibitory activity ([7]; HT29 and TOV-112D) was “shows inhibitory activity” and the effect on viability ([7]; p53-null and p53 R175H HCT116, 6.67 μM) was “no significant effects”. For the same molecule, the “upregulation of ATF4” value [9] was “do not upregulate ATF4”, the “wild-type p53 protein level” value [10] was “stabilizes” and the “endogenous mutant p53 R273H protein level” value [10] was “no effects”. For the same molecule, the “endogenous mutant p53 R175H protein level” value [10] was “no effects”, the “exogenous mutant p53 R175H protein level” value [10] was “no effects” and the “upregulation of DR5” value [13] was “does not upregulate DR5”. The “upregulation of PUMA” value [11] was “significantly upregulates” and the “upregulation of p21” value ([12]; HCT116 (p53 wild-type)) was “significantly upregulates”.
